From patent US20230109839A1, “THERAPEUTIC AGENT FOR TAUOPATHIES” (SUMITOMO PHARMA CO., LTD., priority 2020, published 2023)

The compounds below were run against T1, human Nav1.1 (Homo sapiens, UniProt P35498) (assay: Amplification of Nav1.1-derived voltage-gated sodium current (Nav1.1 current), automated patch clamp (Test 1)). Details: Concentration for evaluation 1 μM; HEK293 cell line stably expressing human Nav1.1.
T1 construct: host or cells: HEK293
Type: cell-based
Summary of the method: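 Compound-induced change in ramp-evoked sodium current peak and AUC was expressed as 100×post/pre ratio minus 100. Recordings used automated patch clamp in voltage-clamp mode on a stable human Nav1.1 HEK293 line, including only cells above 500 pA. Compounds were delivered in extracellular fluid containing 1% DMSO.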

SMILES	Nav1.1 current amplification rate (%)
O=C(Cn1ncc2cnc(N3CCC(F)(F)CC3)nc21)Nc1ccn2ncnc2c1 [Example 768]	18
CC1CC=C(c2ccc(=O)n(CC(=O)N3CCc4c(CNC5CCC5)cccc43)n2)CC1 (stereo not shown) [Example 315]	19
CC1CC=C(c2ccc(=O)n(CC(=O)Nc3ccc4nccn4c3)n2)CC1 (stereo not shown) [Example 343]	44
O=C(Cn1nc(-c2cc(Cl)cs2)ccc1=O)Nc1ccn2ccnc2c1 [Example 467]	80
CC1CC=C(c2ccc(=O)n(CC(=O)Nc3cncc(C4=CCN(C)C4)c3)n2)CC1 (stereo not shown) [Example 367]	38

Next, values leading:

Nav1.1 current amplification rate (%)	SMILES
41	CN(c1cnc2cnn(CC(=O)Nc3ccn4ccnc4c3)c2n1)C1CCC1 [Example 685]
44	CN(c1cnc2cnn(CC(=O)Nc3ccc(C#N)nc3)c2n1)C1CC1 [Example 709]
195	CN(c1cnc2cnn(CC(=O)Nc3ccc4cnccc4c3)c2n1)C1CC1 [Example 706]
123	CC1CC=C(c2ccc(=O)n(CC(=O)Nc3ccc4nccnc4c3)n2)CC1 (stereo not shown) [Example 354]
34	O=C(Cn1ncc2cnc(C3=CCCCC3)nc21)Nc1ccn2ncnc2c1 [Example 786]
45	CC1=CCN(c2ncc3cnn(CC(=O)Nc4ccn5ncnc5c4)c3n2)CC1 [Example 784]
378	CC1CC=C(c2ccc(=O)n(CC(=O)Nc3ccc4cncnc4c3)n2)CC1 (stereo not shown) [Example 356]
98	CC1CCN(c2ncc3cnn(CC(=O)Nc4ccn5ncnc5c4)c3n2)CC1 [Example 763]
112	CN(c1cnc2cnn(CC(=O)Nc3cnc4cccnc4c3)c2n1)C1CC1 [Example 713]
36	Cc1nc2cc(NC(=O)Cn3ncc4ncc(N(C)C5CCCC5)nc43)ccc2o1 [Example 675]
60	CN(c1cnc2cnn(CC(=O)Nc3ccn4ccnc4c3)c2n1)C1CC1 [Example 702]
63	CN(c1cnc2cnn(CC(=O)Nc3ccc(C#N)nc3)c2n1)C1CCCC1 [Example 683]

Same assay, conditions: Concentration for evaluation 3 μM; HEK293 cell line stably expressing human Nav1.1

Nav1.1 current amplification rate (%)	SMILES
404	CC1(C)CC=C(c2ccc(=O)n(CC(=O)N3CCc4c(C5CN(C6COC6)C5)cccc43)n2)CC1 [Example 438]
314	CC1CC=C(c2ccc(=O)n(CC(=O)N3CCc4c(C5CN(C6CCOC6)C5)cccc43)n2)CC1 (stereo not shown) [Example 305]
108	CC1CC=C(c2ccc(=O)n(CC(=O)N3CCc4c(CO)cccc43)n2)CC1 (stereo not shown) [Example 266]
48	CC1CC=C(c2ccc(=O)n(CC(=O)N3CCc4c(CN5CCCC5)cccc43)n2)CC1 (stereo not shown) [Example 271]
13	CN(c1cnc2cnn(CC(=O)N3CC=C(c4cccnc4)CC3)c2n1)C1CC1 [Example 700]

Same assay, conditions: Concentration for evaluation 10 μM; HEK293 cell line stably expressing human Nav1.1

Nav1.1 current amplification rate (%)	SMILES
3	N#Cc1ccc(NC(=O)Cn2nc(N3CCCC3)ccc2=O)cc1 [Example 4]
180	CC1CCN(c2ccc(=O)n(CC(=O)Nc3ccc(C(F)(F)F)nc3)n2)CC1 [Example 59]
324	CC1CC=C(c2ccc(=O)n(CC(=O)Nc3ccc(C#N)cc3)n2)CC1 (stereo not shown) [Example 41]
15	O=C(Cn1nc(-c2ccc(C(F)(F)F)nc2)ccc1=O)Nc1ccc2ocnc2c1 [Example 453]
25	CCN(C)c1cnc2cnn(CC(=O)Nc3ccn4ncnc4c3)c2n1 [Example 623]
114	Cc1ccc(N2CCN(C(=O)Cn3nc(C4=CCC(C)(C)CC4)ccc3=O)CC2)cn1 [Example 443]
337	Cc1cc(=O)n(CC(=O)Nc2ccn3ccnc3c2)nc1C1=CCC(C)(C)CC1 [Example 461]
78	CC1CCN(c2ccc(=O)n(CC(=O)Nc3cccc(-c4ncco4)c3)n2)CC1 [Example 78]
32	CC1CC=C(c2ccc(=O)n(CC(=O)Nc3cccc4nccn34)n2)CC1 (stereo not shown) [Example 255]
30	CC1(C)CC=C(c2ccc(=O)n(CC(=O)N3CCC4(CCOCC4)CC3)n2)CC1 [Example 441]
633	CC1(C)CC=C(c2ccc(=O)n(CC(=O)N3CCc4c(N5CCOCC5)cccc43)n2)C1 [Example 475]
387	CC1CCC(c2ccc(=O)n(CC(=O)N3CCc4c(N5CCOCC5)cccc43)n2)CC1 (mixture of isomers) [Example 472]
46	Cc1ccc(-c2ccc(=O)n(CC(=O)Nc3cncnc3)n2)cc1 [Example 141]
98	CC1CCN(c2ccc(=O)n(CC(=O)Nc3ccc(C#N)cc3)n2)C1 (stereo not shown) [Example 19]
40	CC1CC=C(c2ccc(=O)n(CC(=O)N3CC4(C3)CN(c3cccnc3)C4)n2)CC1 (racemic) [Example 424]
174	C[C@H]1CC[C@H](c2ccc(=O)n(CC(=O)Nc3ccc(C#N)cc3)n2)CC1 [Example 43]
26	CC1CC=C(c2ccc(=O)n(CC(=O)Nc3cc4nccn4cc3C#N)n2)CC1 (stereo not shown) [Example 359]
40	N#Cc1ccc(NC(=O)Cn2nc(N3CCCCC3)ccc2=O)cc1 [Example 3]
196	CC1(C)CC=C(c2ccc(=O)n(CC(=O)N3CCN(c4cccnc4)CC3)n2)CC1 [Example 440]

Same assay, conditions: Concentration for evaluation 50 μM; HEK293 cell line stably expressing human Nav1.1

SMILES	Nav1.1 current amplification rate (%)
O=C(Cn1nc(C2=CCCC2)ccc1=O)Nc1ccn2ccnc2c1 [Example 457]	29
Cc1ccc(-c2ccc(=O)n(CC(=O)N3CCc4ccccc43)n2)cc1 [Example 157]	29

The remaining lines, values ahead:

Nav1.1 current amplification rate (%)	SMILES
63	CC(C)N(C)c1cnc2cnn(CC(=O)Nc3ccc4ncnn4c3)c2n1 [Example 665]
17	Cc1ccc(F)c(Nc2ncc3cnn(CC(=O)Nc4ccn5ncnc5c4)c3n2)c1 [Example 776]

Same assay, conditions: HEK293, Concentration for evaluation 1 μM; HEK293 cell line stably expressing human Nav1.1; read-out: Nav1.1 current amplification rate (%)

activation at 1 µM [%]	SMILES
10	N#Cc1ccc(NC(=O)Cn2ncc3ncc(N4CCC5(CC5)C(F)(F)C4)nc32)nc1 [Example 757]
73	O=C(Cn1ncc2ncc(N3CCC4(CC4)C(F)(F)C3)nc21)Nc1ccc(-n2ccnc2)nc1 [Example 747]
13	O=C(Cn1ncc2ncc(N3CCC4(CCC4)CC3)nc21)N1CCN(c2cccnc2)CC1 [Example 736]

Same assay, conditions: HEK293, Concentration for evaluation 3 μM; HEK293 cell line stably expressing human Nav1.1; read-out: Nav1.1 current amplification rate (%)

activation at 3 µM [%]	SMILES
22	Cc1nn(CC(=O)Nc2ccn3ncnc3c2)c2nc(N3CCC4(CCC4)C3)cnc12 [Example 738]

Same assay, conditions: HEK293, concentration for evaluation 1 μM; HEK293 stably expressing human Nav1.1; read-out: Nav1.1 current amplification rate (%)

activation at 1 µM [%]	SMILES
132	CC1CCN(c2ncc3cnn(CC(=O)Nc4cnc(C#N)cn4)c3n2)CC1(F)F (stereo not shown) [Example 847]
158	CN(CC1CCC1)c1ncc2cnn(CC(=O)Nc3cnc4cccnc4c3)c2n1 [Example 846]

Same assay, conditions: concentration for evaluation 1 μM; HEK293 stably expressing human Nav1.1

Nav1.1 current amplification rate (%)	SMILES
50	O=C(Cn1ncc2ccc(C3=CCC(F)(F)CC3)nc21)Nc1ccn2ncnc2c1 [Example 860]
19	O=C(Cn1ncc2ccc(C3=CCCCO3)nc21)Nc1ccn2ccnc2c1 [Example 868]
262	CC1CCN(c2ncc3cnn(CC(=O)Nc4ccc5cncnc5c4)c3n2)CC1 [Example 806]
14	O=C(Cn1ncc2ccc(-c3ccc(F)cc3F)nc21)Nc1ccn2ccnc2c1 [Example 865]
